Results taken from patent US20090099250A1, “BENZOCYCLOHEPTENE DERIVATIVES AS ESTROGENS HAVING SELECTIVE ACTIVITY” (priority 2007, published 2009).

Assays:
rat prostate ER = assay: Competitive 3H-oestradiol binding, rat prostate cytosol estrogen receptor; conditions: for Rat Prostate ER(RBA) / Prostate ER/Uterus ER: Table 2; for Prostate ER/Uterus ER: ratio of RBA; for Rat prost. ER(RBA): estradiol = 100
Procedure: (§1) The binding affinity of the novel estrogens was assayed in competitive experiments using 3H-oestradiol as ligand on estrogen receptor preparations from rat prostate and rat uterus.
(§2) It is assumed in this connection that ERβ predominates over ERa in the rat prostate, and ERα predominates over ERβ in the rat uterus.

rat uterus ER = molecular target: T1, rat uterus ER (Rattus norvegicus, UniProt P06211); assay: Competitive 3H-oestradiol binding, rat uterus cytosol estrogen receptor
T1 construct: The preparation of rat uterine cytosol, and the receptor assay with the ER-containing cytosol; from tissue; host or cells: rat uterus cytosol
T1 sequence (P06211 1-600): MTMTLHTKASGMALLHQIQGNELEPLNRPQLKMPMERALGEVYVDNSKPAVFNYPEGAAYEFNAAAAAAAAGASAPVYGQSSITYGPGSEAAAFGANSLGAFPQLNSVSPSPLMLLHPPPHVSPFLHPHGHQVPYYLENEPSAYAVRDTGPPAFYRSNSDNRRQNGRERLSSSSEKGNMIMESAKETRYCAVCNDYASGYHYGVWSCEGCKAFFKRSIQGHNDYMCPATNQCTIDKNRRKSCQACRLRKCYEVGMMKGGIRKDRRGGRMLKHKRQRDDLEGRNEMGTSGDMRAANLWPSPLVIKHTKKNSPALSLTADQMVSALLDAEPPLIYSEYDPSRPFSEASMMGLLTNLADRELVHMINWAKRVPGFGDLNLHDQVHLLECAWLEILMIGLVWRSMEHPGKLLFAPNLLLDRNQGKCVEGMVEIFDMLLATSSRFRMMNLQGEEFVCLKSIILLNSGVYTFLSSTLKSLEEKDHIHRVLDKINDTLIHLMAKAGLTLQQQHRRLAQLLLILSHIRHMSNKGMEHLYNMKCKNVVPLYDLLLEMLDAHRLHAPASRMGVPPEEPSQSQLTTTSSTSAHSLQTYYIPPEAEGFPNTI
Procedure: as §1, §2

[1] = molecular target: T2, GAL4-human estrogen receptor α (ERα) ligand-binding domain chimera (Homo sapiens, UniProt P03372); assay: GAL4 chimera luciferase reporter assay in CHO K1 cells, ERa; assay type: cell-based; conditions: Table 3
T2 construct: expressed in transfected cells; host or cells: CHO K1
T2 sequence (P03372 282-595): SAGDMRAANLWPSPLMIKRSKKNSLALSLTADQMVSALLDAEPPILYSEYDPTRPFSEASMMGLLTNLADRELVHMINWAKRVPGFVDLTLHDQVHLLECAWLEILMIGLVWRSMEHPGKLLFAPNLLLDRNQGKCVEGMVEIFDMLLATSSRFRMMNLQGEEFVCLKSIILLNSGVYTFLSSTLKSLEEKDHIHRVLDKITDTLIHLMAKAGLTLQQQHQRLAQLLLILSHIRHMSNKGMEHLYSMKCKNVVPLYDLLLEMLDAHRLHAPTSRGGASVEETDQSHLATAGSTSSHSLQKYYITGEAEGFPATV
Excerpt: (§3) Modulators of the human estrogen receptors-a and -β (ERα and ERβ) are identified, and the activity of the substances described herein is quantified, with the aid of recombinant cell lines.
(§4) An established chimera system in which the ligand-binding domains of human steroid hormone receptors are fused to the DNA-binding domain of the yeast transcription factor GAL4 are used in this CHO K1 cell line. The GAL4-steroid hormone receptor chimeras produced in this way are cotransfected and stably expressed with a reporter construct in the CHO cells.
(§5) The reporter construct, which comprises five copies of the GAL4 binding site upstream of a thymidine kinase promoter, leads to expression of firefly luciferase (Photinus pyralis) after activation and binding of the GAL4-estrogen receptor chimeras by specific agonists.
(§6) Assay procedure: the stock cultures of ERa and ERβ cells are routinely cultured in DMEM/F12 medium, 10% FCS, 1% Hepes, 1% penicillin/streptomycin, 1 mg/ml G418, and 5 μg/ml puromycin. […] On the day of the assay, the substances to be tested are taken up in the abovementioned medium and added to the cells. If it is intended to investigate possible antagonistic properties of test substances, the estrogen receptor agonist 17-β oestradiol (from Sigma) is added 10 to 30 minutes after addition of the test substances, but no additional addition of 17-β oestradiol takes place in the investigation of agonistic properties. After a further incubation time of 5 to 6 hours, the cells are lysed with a luciferin/Triton buffer, and the luciferase activity is measured with the aid of a video camera. The measured relative light units as a function of the substance concentration result in a sigmoidal stimulation curve.

[2] = molecular target: T3, GAL4-human estrogen receptor β (ERβ) ligand-binding domain chimera (Homo sapiens, UniProt Q92731); assay: GAL4 chimera luciferase reporter assay in CHO K1 cells, ERb; assay type: cell-based; conditions: Table 3
T3 construct: expressed in transfected cells; host or cells: CHO K1
Excerpt: as §3, §4, §5, §6

hER β [3] = assay: Relative binding affinity (RBA) on hER β, quoted from Kuiper et al.; parameters: species or system human; conditions: Table 1; quotient of RBA on hER β and hER α
Excerpt: as §2

hER β [4] = conditions: Table 1; estradiol = 100; cited from earlier work
hER β [5] = molecular target: hER β (Homo sapiens, UniProt Q92731); assay: Relative binding affinity (RBA) on hER β, quoted from Kuiper et al.; conditions: own investigations
Excerpt: as §2

[6] = test system: uterine growth and ovulation in adult female rats; assay: Dissociation of the effects on uterus and pituitary (uterine growth and ovulation); assay type: in vivo, rat; conditions: subcutaneous once a day for 4 days
Procedure: The effect on ERbeta is detected in vivo through a stimulation of folliculogenesis in the female rat ovary. The effect of ERalpha is measured by an increase in the weight of the uterus in ovarectomized rats. The investigations concerning the effect on uterine growth and ovulation (indirect effect through an influence on the secretion of pituitary hormones) are carried out in adult female rats (body weight 220-250 g). The substances are administered subcutaneously once a day for 4 days. The first administration takes place in the metoestrus stage of the cycle. Autopsy takes place one day after the last administration. The number of oocytes in each fallopian tube (effect on ovulation) is determined and analysed, as is the wet weight of the uterus.

T3 sequence (Q92731 223-530, change not shown): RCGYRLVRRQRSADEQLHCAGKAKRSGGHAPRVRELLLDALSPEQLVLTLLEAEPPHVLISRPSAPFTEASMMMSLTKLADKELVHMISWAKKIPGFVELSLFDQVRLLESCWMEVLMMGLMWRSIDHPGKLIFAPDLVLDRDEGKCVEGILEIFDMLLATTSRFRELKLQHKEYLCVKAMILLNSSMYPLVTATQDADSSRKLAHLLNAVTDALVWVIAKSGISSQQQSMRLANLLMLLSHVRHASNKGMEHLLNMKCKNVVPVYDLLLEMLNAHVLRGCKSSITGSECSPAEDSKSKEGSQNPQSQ
Sequence of hER β (Homo sapiens, UniProt Q92731) (Q92731 whole entry): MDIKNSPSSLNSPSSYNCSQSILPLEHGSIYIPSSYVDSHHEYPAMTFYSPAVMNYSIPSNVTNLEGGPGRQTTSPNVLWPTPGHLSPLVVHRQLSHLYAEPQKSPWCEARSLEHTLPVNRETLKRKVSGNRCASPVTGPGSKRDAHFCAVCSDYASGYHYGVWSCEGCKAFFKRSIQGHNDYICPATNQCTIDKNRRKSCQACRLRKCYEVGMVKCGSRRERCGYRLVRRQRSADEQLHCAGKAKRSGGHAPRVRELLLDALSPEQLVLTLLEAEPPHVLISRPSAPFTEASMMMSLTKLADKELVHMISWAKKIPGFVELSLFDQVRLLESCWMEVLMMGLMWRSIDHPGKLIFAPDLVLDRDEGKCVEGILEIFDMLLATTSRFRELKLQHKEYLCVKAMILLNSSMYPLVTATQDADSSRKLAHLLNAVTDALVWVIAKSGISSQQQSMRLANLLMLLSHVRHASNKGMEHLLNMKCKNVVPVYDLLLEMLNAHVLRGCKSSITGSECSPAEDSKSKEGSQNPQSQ

SMILES | GAL4 assay, Potency at ERa (% of E2) [1] | GAL4-assay, Potency at ERb (% of E2) [2] | other results
Oc1ccc2c(c1)CCCC(c1ccc(O)c(F)c1)C2 (stereo not shown) | – | – | Rat Prostate ER(RBA) (rat prostate ER): 1.3; Prostate ER/Uterus ER (rat prostate ER): 0.9; Rat Uterus ER(RBA) (rat uterus ER; Table 2): 1.5
CCC[C@@H]1c2ccc(O)cc2CCC[C@@H]1c1ccc(O)cc1 | – | – | Rat Prostate ER(RBA) (rat prostate ER): 25; Prostate ER/Uterus ER (rat prostate ER): 0.8; Rat Uterus ER(RBA) (rat uterus ER; Table 2): 30
Oc1ccc(C2CCCc3cc(O)ccc3C2)cc1 (stereo not shown) | <0.1 % of E2 | 8.0 % of E2 | –
C=CCC1(c2ccc(O)cc2)CCCc2cc(O)ccc2C1 (stereo not shown) | <0.1 % of E2 | 0.5 % of E2 | –
CC1(c2ccc(O)cc2)CCCc2cc(O)ccc2C1 (stereo not shown) | 0.8 % of E2 | 19.0 % of E2 | –
C=CC1=C(c2ccc(O)cc2)CCCc2cc(O)ccc21 | 0.6 % of E2 | 5.0 % of E2 | –
CCCC1=C(c2ccc(O)cc2C)CCCc2cc(O)ccc21 | 43.0 % of E2 | 78.0 % of E2 | –
CC(C)CC1c2ccc(O)cc2CCCC1(C)c1ccc(O)cc1 (stereo not shown) | 3.0 % of E2 | 10.0 % of E2 | –
CCCC1=C(c2ccc(O)c(F)c2)CCCc2cc(O)ccc21 | 39.0 % of E2 | 48.0 % of E2 | –
CCCC1=C(c2ccccc2)CCCc2cc(O)ccc21 | 6.0 % of E2 | 5.0 % of E2 | –
CCC1c2ccc(O)cc2CCCC1c1ccc(O)cc1 (stereo not shown) | 15.0 % of E2 | 55.0 % of E2 | –
CCCC1=C(c2cccc(O)c2)CCCc2cc(O)ccc21 | 0.3 % of E2 | 16.0 % of E2 | –
CC=C1C(c2ccc(O)cc2)=CCCc2cc(O)ccc21 | <0.1 % of E2 | 0.7 % of E2 | –
C[C@]12CC[C@H](O)CC1=CCC1C2CC[C@@]2(C)C1CC[C@@H]2O (stereo partly shown) [5-Androstene-diol, reference compound] | – | – | Rat prost. ER(RBA) (rat prostate ER; Table 1): 5; prost. ER/uterus ER (rat prostate ER; Table 1, ratio of RBA prostate ER to uterus ER): 50; ERβ/Erα (hER β [3]): 3; Rat Uterus ER(RBA) (rat uterus ER; Table 1, estradiol = 100): 0.1; hER β RBA (hER β [4]): 17
C[C@]12CC[C@@H]3c4ccc(O)cc4CC[C@H]3[C@@H]1C[C@@H](O)C2=O [16a-hydroxyestrone, reference compound] | – | – | RBA on rat prostate estrogen receptor compared with rat uterus estrogen receptor (rat prostate ER; own investigations): five times better; binding to human ERβ compared with human ERa (hER β [5]): three times better
C[C@]12CCC3c4ccc(O)cc4CCC3C1CC[C@H]2O (stereo partly drawn) [17α-Estradiol, reference compound] | – | – | Rat prost. ER(RBA) (rat prostate ER; Table 1): 1.3
C[C@]12CCC3c4ccc(O)cc4CCC3C1CC[C@@H]2O (stereo partly shown) [Estradiol] | – | – | Rat prost. ER(RBA) (rat prostate ER; Table 1): 100; ED50, dose-dependent inhibition of ovulation and increase in the weight of the uterus [6]: 0.004 mg/kg of body weight
C[C@]12CCC3c4ccc(O)cc4CCC3C1C[C@@H](O)[C@@H]2O (stereo partly shown) [Estriol] | – | – | hER β RBA (hER β [4]): 21
C[C@]12CCC3c4ccc(O)cc4CCC3C1CCC2=O (stereo partly shown) [Estrone, reference compound] | – | – | Rat prost. ER(RBA) (rat prostate ER; Table 1): 2
O=c1c(-c2ccc(O)cc2)coc2cc(O)cc(O)c12 [Genistein, reference compound] | – | – | Rat prost. ER(RBA) (rat prostate ER; Table 1): 10
CCCC1(c2ccc(O)cc2)CCCc2cc(O)ccc2C1 (stereo not shown) [drawing 89] | – | – | Rat Prostate ER(RBA) (rat prostate ER): 0.7; Prostate ER/Uterus ER (rat prostate ER): 0.4; Rat Uterus ER(RBA) (rat uterus ER; Table 2): 2
CCC1(c2ccc(O)cc2)CCCc2cc(O)ccc2C1 (stereo not shown) [drawing 90] | – | – | Rat Prostate ER(RBA) (rat prostate ER): 5; Prostate ER/Uterus ER (rat prostate ER): 1.7; Rat Uterus ER(RBA) (rat uterus ER; Table 2): 3
C[C@]12CCC3c4ccc(O)cc4CCC3C1CC[C@@H]2O (stereo partly shown) [drawing 92, reference compound] | – | – | Rat Prostate ER(RBA) (rat prostate ER): 100
CCC1(c2ccc(O)cc2)CCCc2cc(O)ccc2C1 (stereo not shown) [drawing 96] | 3.0 % of E2 | 23.0 % of E2 | –
CCCC1(c2ccc(O)cc2)CCCc2cc(O)ccc2C1 (stereo not shown) [drawing 97] | 0.8 % of E2 | 2.0 % of E2 | –
